Measured values taken from patent US7700576B2, “Pharmaceutical composition on basis of reverse transcriptase inhibitor and meldonium” (priority 2005, dated 2010).

Experiments:
[1] = mouse, in vivo
cerebral cortex neurons = assay: Cerebral cortex neuron degenerative transformation (molecular and external granule layers); assay type: in vivo, mice; settings: after a fortnight
myocardium = system: myocardium; set-up: species or system mice; settings: mouse, in vivo, ip
Method: The cardiotoxic action of Zidovudine and Meldonium pharmaceutical compositions was investigated by introducing them into male mice of initial mass 15.69±1.56 g during a fortnight. Throughout the experiment, the animals were kept in standard laboratory conditions at temperature of 22±0.5° C. and 12 hours light/darkness cycle, being fed with standard laboratory animal food. For the control group (n=6), 10 ml of 0.9% NaCl aqueous solution was intraperitoneally introduced daily (1st and 12th group). In a series of experiments, the following solutions were administered intraperitoneally for animal trial groups (including 6 mice each) daily. On the 15th day of the trial, the animals were decapitated, hearts were taken out and placed into 10% formalin solution. For immuno-histochemical research, organs were fixed in paraffin, and preparations of 4 μm thickness were sliced which were tinged according to the avidin-biotin immuno-histochemical method by use of DAKO LSAB reagent kit.

mice = settings: p.o. for mice; cited from earlier work
[2] = oral introduction; cited from earlier work

With `Cc1cn([C@H]2C[C@H](N=[N+]=[N-])[C@@H](CO)O2)c(=O)[nH]c1=O` [AZT, 3′-Azido-3′-deoxythymidine] the “Algesia (pain latent period, tail compression)” value (shortened to “Algesia”) [1] was “provokes significant algesia”, the “Increase in degenerated neurons of the cerebral cortex as compared with the control” value (shortened to “Increase in degenerated neurons”) (cerebral cortex neurons) was 3 fold and the “Histological changes of heart tissue” value (myocardium) was “induces perivascular oedema, degeneration of myocardium adipose tissue and infiltration with leucocytes”.
With `Nc1ccn([C@@H]2CS[C@H](CO)O2)c(=O)n1` [Lamivudine, (2R-cis)-4-Amino-1-[2-(hydroxymethyl)-1,3-oxathiolan-5-yl]-2(IH)-pyrimidinone] the “Algesia” value [1] was “provokes significant algesia” and the “Increase in degenerated neurons” value (cerebral cortex neurons) was 3 fold.
In the case of `C[N+](C)(C)NCCC(=O)[O-]` [Meldonium, 3-(2,2,2-Trimethylhydrazinium) propionate], the toxicity (mice) is listed as “more than 25,000 mg/kg” and the bioavailability [2] is listed as “very high”.
In the case of `Cc1cn([C@H]2C=C[C@@H](CO)O2)c(=O)[nH]c1=O` [Stavudine, 2′,3′-Didehydro-3′-deoxythymidine], the “Algesia” value [1] is reported as “provokes significant algesia”, the “Increase in degenerated neurons” value (cerebral cortex neurons) is reported as 3 fold and the “Histological changes of heart tissue” value (myocardium) is reported as “induces perivascular oedema, degeneration of myocardium adipose tissue and infiltration with leucocytes”.
